# Laboratory results taken from ChEMBL document CHEMBL4706534, “1,2,3-Triazole-containing hybrids with potential antibacterial activity against methicillin-resistant Staphylococcus aureus (MRSA)” (Eur J Med Chem, 2020).
# What was measured:
# Staphylococcus aureus [1] = assay: Antibacterial activity against methicillin-resistant Staphylococcus aureus ATCC 43300 incubated for 16 to 18 hrs by CLSI based assay; format: functional; conditions: time 16-18 hrs
# Staphylococcus aureus [2] = assay: Resistance index, ratio of MIC for antibacterial activity against Staphylococcus aureus ATCC 43300 incubated for 16 to 18 hrs by CLSI based assay to MIC for antibacterial activity against Staphylococcus aureus DSM 20231 incubated for 16 to 18 hrs by CLSI based assay; format: functional; conditions: time 16-18 hrs
# Staphylococcus aureus [3] = assay: Antibacterial activity against Staphylococcus aureus ATCC 25923 by CLSI-based broth microdilution method; format: functional
# Staphylococcus aureus [4] = assay: Resistance index, ratio of MIC for antibacterial activity against methicillin-resistant Staphylococcus aureus […] to MIC for antibacterial activity against methicillin-sensitive Staphylococcus aureus; format: functional
# Enterococcus [5] = assay: Antibacterial activity against Vancomycin-resistant enterococcus 1 incubated for 16 hrs by agar dilution method; format: functional
# Enterococcus [6] = assay: Antibacterial activity against Vancomycin-resistant enterococcus 2 incubated for 16 hrs by agar dilution method; format: functional
# Staphylococcus aureus [7] = assay: Antibacterial activity against Methicillin-resistant Staphylococcus aureus N315 incubated for 24 hrs by two fold serial dilution method; format: functional
# Staphylococcus aureus [8] = assay: Antibacterial activity against Staphylococcus aureus ATCC 25923 incubated for 24 hrs by two fold serial dilution method; format: functional
# Staphylococcus aureus [9] = assay: Antibacterial activity against Methicillin-resistant Staphylococcus aureus KU60; format: functional
# Staphylococcus aureus [10] = assay: Antibacterial activity against Methicillin-resistant Staphylococcus aureus ATCC 33591; format: functional, organism-based
# Enterococcus faecalis = assay: Antibacterial activity against vancomycin susceptible Enterococcus faecalis ATCC 29212; format: functional
# Enterococcus [11] = assay: Antibacterial activity against vancomycin resistant Enterococcus ATCC 51299; format: functional
# Staphylococcus aureus [12] = assay: Antibacterial activity against Methicillin-resistant Staphylococcus aureus 1 incubated for 16 hrs by agar dilution method; format: functional
# Staphylococcus aureus [13] = assay: Antibacterial activity against Methicillin-resistant Staphylococcus aureus 2 incubated for 16 hrs by agar dilution method; format: functional
# Staphylococcus aureus [14] = assay: Antibacterial activity against methicillin-susceptible Staphylococcus aureus ATCC 25923 incubated for 18 hrs; format: functional
# Staphylococcus aureus [15] = assay: Antibacterial activity against methicillin-resistant Staphylococcus aureus ATCC 33591 incubated for 18 hrs; format: functional
# Staphylococcus aureus [16] = assay: Potency index, ratio of linezolid MIC to compound MIC for antibacterial activity against methicillin-resistant Staphylococcus aureus ATCC 33591; format: functional
# Staphylococcus aureus [17] = assay: Antibacterial activity against methicillin-resistant Staphylococcus aureus; format: functional
smiles,measurement,setting,value
N=C(N)NCCC[C@H](NC(=O)[C@H](Cc1c[nH]c2ccccc12)NC(=O)[C@H](CCCNC(=N)N)NC(=O)[C@H](Cc1c[nH]c2ccccc12)NC(=O)[C@@H](N)CCCNC(=N)N)C(=O)N[C@@H](Cc1c[nH]c2ccccc12)C(=O)N[C@@H](CCCCn1cc(COc2cc(OCc3cn(CCCC[C@H](NC(=O)[C@H](Cc4c[nH]c5ccccc45)NC(=O)[C@H](CCCNC(=N)N)NC(=O)[C@H](Cc4c[nH]c5ccccc45)NC(=O)[C@H](CCCNC(=N)N)NC(=O)[C@H](Cc4c[nH]c5ccccc45)NC(=O)[C@@H](N)CCCNC(=N)N)C(N)=O)nn3)cc(OCc3cn(CCCC[C@H](NC(=O)[C@H](Cc4c[nH]c5ccccc45)NC(=O)[C@H](CCCNC(=N)N)NC(=O)[C@H](Cc4c[nH]c5ccccc45)NC(=O)[C@H](CCCNC(=N)N)NC(=O)[C@H](Cc4c[nH]c5ccccc45)NC(=O)[C@@H](N)CCCNC(=N)N)C(N)=O)nn3)c2)nn1)C(N)=O,MIC,Staphylococcus aureus [1],2.7 µM
same,Ratio,Staphylococcus aureus [2],0.5
CC(C)NC(=N)c1ccc2[nH]c(-c3ccc(OCc4cn(CSc5ccccc5)nn4)cc3)nc2c1,MIC,Staphylococcus aureus [3],8 µg/mL
same,Ratio,Staphylococcus aureus [4],0.125
CC(C)C[C@@H](N)C(=O)N[C@H]1C(=O)N[C@@H](CC(N)=O)C(=O)N[C@H]2C(=O)N[C@H]3C(=O)N[C@H](C(=O)N[C@H](C(=O)O)c4cc(O)cc(O)c4-c4cc3ccc4O)[C@H](O)c3ccc(c(Cl)c3)Oc3cc2cc(c3O[C@@H]2O[C@H](CO)[C@@H](O)[C@H](O)[C@H]2O[C@H]2C[C@](C)(N)[C@H](O)[C@H](C)O2)Oc2ccc(cc2Cl)[C@H]1O,MIC,Enterococcus [5],> 50 µg/mL
same,MIC,Enterococcus [6],> 50 µg/mL
O=c1c2ccc(F)cc2ncn1CC(O)Cn1nnc2ccccc21 (stereo not drawn),MIC,Staphylococcus aureus [7],≥ 64 µg/mL
same,MIC,Staphylococcus aureus [8],≥ 64 µg/mL
CC(C)NC(=N)c1ccc2[nH]c(-c3ccc(OCc4cn(-c5ccccc5Cl)nn4)cc3)nc2c1,MIC,Staphylococcus aureus [3],8 µg/mL
same,Ratio,Staphylococcus aureus [4],0.125
O=C(C(Cl)Cl)N1CCN(c2ccc(N3C[C@H](Cn4ccnn4)OC3=O)cc2F)CC1,MIC,Staphylococcus aureus [9],0.25 µg/mL
Cc1ccc2c(c1)nnn2CC(O)Cn1cnc2cc(Cl)ccc2c1=O (stereo not drawn),MIC,Staphylococcus aureus [7],≥ 64 µg/mL
same,MIC,Staphylococcus aureus [8],≥ 64 µg/mL
CN[C@H](CC(C)C)C(=O)N[C@@H]1Cc2ccc(c(Cl)c2)Oc2cc3cc(c2O[C@@H]2O[C@H](CO)[C@@H](O)[C@H](O)[C@H]2O[C@H]2C[C@](C)(N)[C@H](O)[C@H](C)O2)Oc2ccc(cc2Cl)[C@@H](O)[C@@H]2NC(=O)[C@H](NC(=O)[C@@H]3NC(=O)[C@H](CC(=O)O)NC1=O)c1ccc(O)c(c1)-c1c(O)cc(O)cc1[C@H](C(=O)NCCOCCOCCOCCn1cc(CCNC(=O)[C@@H]3NC(=O)[C@H]4NC(=O)[C@H](NC(=O)[C@@H]5NC(=O)[C@H](CC(=O)O)NC(=O)[C@H](NC(=O)[C@@H](CC(C)C)NC)Cc6ccc(c(Cl)c6)Oc6cc5cc(c6O[C@@H]5O[C@H](CO)[C@@H](O)[C@H](O)[C@H]5O[C@H]5C[C@](C)(N)[C@H](O)[C@H](C)O5)Oc5ccc(cc5Cl)[C@H]4O)c4ccc(O)c(c4)-c4c(O)cc(O)cc43)nn1)NC2=O,MIC,Staphylococcus aureus [10],0.5 µg/mL
same,MIC,Enterococcus faecalis,0.5 µg/mL
same,MIC,Enterococcus [11],0.5 µg/mL
CC(C)C[C@H](C(=O)N[C@@H]1Cc2ccc(c(Cl)c2)Oc2cc3cc(c2O[C@@H]2O[C@H](CO)[C@@H](O)[C@H](O)[C@H]2O[C@H]2C[C@](C)(NCCCCCCCc4ccccc4)[C@H](O)[C@H](C)O2)Oc2ccc(cc2Cl)[C@@H](O)[C@@H]2NC(=O)[C@H](NC(=O)[C@@H]3NC(=O)[C@H](CC(=O)O)NC1=O)c1ccc(O)c(c1)-c1c(O)cc(O)cc1[C@H](C(=O)O)NC2=O)n1cc(COCCOCCOCc2cn([C@H](CC(C)C)C(=O)N[C@@H]3Cc4ccc(c(Cl)c4)Oc4cc5cc(c4O[C@@H]4O[C@H](CO)[C@@H](O)[C@H](O)[C@H]4O[C@H]4C[C@](C)(NCCCCCCCc6ccccc6)[C@H](O)[C@H](C)O4)Oc4ccc(cc4Cl)[C@@H](O)[C@@H]4NC(=O)[C@H](NC(=O)[C@@H]5NC(=O)[C@H](CC(=O)O)NC3=O)c3ccc(O)c(c3)-c3c(O)cc(O)cc3[C@H](C(=O)O)NC4=O)nn2)nn1,MIC,Staphylococcus aureus [12],6.25 µg/mL
same,MIC,Staphylococcus aureus [13],12.5 µg/mL
same,MIC,Enterococcus [5],25 µg/mL
same,MIC,Enterococcus [6],12.5 µg/mL
CC(=O)NC[C@H]1CN(c2ccc(-n3cc(-c4ccccn4)nn3)c(F)c2)C(=O)O1,MIC,Staphylococcus aureus [14],2 µg/mL
same,MIC,Staphylococcus aureus [15],0.5 µg/mL
same,Ratio,Staphylococcus aureus [16],4
c1ccc(SCn2cc(COc3ccc(-c4nc5cc(C6=NCCN6)ccc5[nH]4)cc3)nn2)cc1,MIC,Staphylococcus aureus [3],8 µg/mL
same,Ratio,Staphylococcus aureus [4],0.125
CC(=O)NC[C@H]1CN(c2ccc(-n3cc(-c4ncccn4)nn3)c(F)c2)C(=O)O1,MIC,Staphylococcus aureus [14],2 µg/mL
same,MIC,Staphylococcus aureus [15],0.5 µg/mL
same,Ratio,Staphylococcus aureus [16],4
CC(=O)NC[C@H]1CN(c2ccc(-n3cc(-c4ccncn4)nn3)c(F)c2)C(=O)O1,MIC,Staphylococcus aureus [14],2 µg/mL
same,MIC,Staphylococcus aureus [15],0.5 µg/mL
same,Ratio,Staphylococcus aureus [16],4
CC(C)NC(=N)c1ccc2[nH]c(-c3ccc(OCc4cn(-c5ccccc5)nn4)cc3)nc2c1,MIC,Staphylococcus aureus [3],8 µg/mL
same,Ratio,Staphylococcus aureus [4],0.125
CC(C)(C)C(=O)N1CCN(c2ccc(N3C[C@H](Cn4ccnn4)OC3=O)cc2F)CC1,MIC,Staphylococcus aureus [9],0.25 µg/mL
O=C(c1ccccc1)N1CCN(c2ccc(N3C[C@H](Cn4ccnn4)OC3=O)cc2F)CC1,MIC,Staphylococcus aureus [9],0.25 µg/mL
COc1c(N2C[C@@H]3CCCN[C@@H]3C2)c(F)cc2c(=O)c(C(=O)O)cn(C3CC3)c12 [MOXIFLOXACIN],MIC,Staphylococcus aureus [17],8 µg/mL
CC(C)C[C@H](C(=O)N[C@@H]1Cc2ccc(c(Cl)c2)Oc2cc3cc(c2O[C@@H]2O[C@H](CO)[C@@H](O)[C@H](O)[C@H]2O[C@H]2C[C@](C)(NCCCCCCCc4ccccc4)[C@H](O)[C@H](C)O2)Oc2ccc(cc2Cl)[C@@H](O)[C@@H]2NC(=O)[C@H](NC(=O)[C@@H]3NC(=O)[C@H](CC(=O)O)NC1=O)c1ccc(O)c(c1)-c1c(O)cc(O)cc1[C@H](C(=O)O)NC2=O)n1cc(COCCCCCCOCc2cn([C@H](CC(C)C)C(=O)N[C@@H]3Cc4ccc(c(Cl)c4)Oc4cc5cc(c4O[C@@H]4O[C@H](CO)[C@@H](O)[C@H](O)[C@H]4O[C@H]4C[C@](C)(NCCCCCCCc6ccccc6)[C@H](O)[C@H](C)O4)Oc4ccc(cc4Cl)[C@@H](O)[C@@H]4NC(=O)[C@H](NC(=O)[C@@H]5NC(=O)[C@H](CC(=O)O)NC3=O)c3ccc(O)c(c3)-c3c(O)cc(O)cc3[C@H](C(=O)O)NC4=O)nn2)nn1,MIC,Staphylococcus aureus [12],12.5 µg/mL
same,MIC,Staphylococcus aureus [13],12.5 µg/mL
same,MIC,Enterococcus [5],25 µg/mL
same,MIC,Enterococcus [6],12.5 µg/mL
C#CCOCCOCCOCc1cn([C@H](CC(C)C)C(=O)N[C@@H]2Cc3ccc(c(Cl)c3)Oc3cc4cc(c3O[C@@H]3O[C@H](CO)[C@@H](O)[C@H](O)[C@H]3O[C@H]3C[C@](C)(NCCCCCCCc5ccccc5)[C@H](O)[C@H](C)O3)Oc3ccc(cc3Cl)[C@@H](O)[C@@H]3NC(=O)[C@H](NC(=O)[C@@H]4NC(=O)[C@H](CC(=O)O)NC2=O)c2ccc(O)c(c2)-c2c(O)cc(O)cc2[C@H](C(=O)O)NC3=O)nn1,MIC,Staphylococcus aureus [12],25 µg/mL
same,MIC,Staphylococcus aureus [13],12.5 µg/mL
N=C(N)NCCC[C@H](NC(=O)[C@H](Cc1c[nH]c2ccccc12)NC(=O)[C@H](CCCNC(=N)N)NC(=O)[C@H](Cc1c[nH]c2ccccc12)NC(=O)[C@@H](N)CCCNC(=N)N)C(=O)N[C@@H](Cc1c[nH]c2ccccc12)C(=O)N[C@@H](CCCCn1cc(COc2ccccc2)nn1)C(N)=O,MIC,Staphylococcus aureus [1],2.7 µM
same,Ratio,Staphylococcus aureus [2],0.5
O=c1c2ccc(Cl)cc2ncn1CC(O)Cn1nnc2ccccc21 (stereo not drawn),MIC,Staphylococcus aureus [7],≥ 64 µg/mL
same,MIC,Staphylococcus aureus [8],≥ 64 µg/mL
CC(C)C[C@H](C(=O)N[C@@H]1Cc2ccc(c(Cl)c2)Oc2cc3cc(c2O[C@@H]2O[C@H](CO)[C@@H](O)[C@H](O)[C@H]2O[C@H]2C[C@](C)(NCCCCCCCc4ccccc4)[C@H](O)[C@H](C)O2)Oc2ccc(cc2Cl)[C@@H](O)[C@@H]2NC(=O)[C@H](NC(=O)[C@@H]3NC(=O)[C@H](CC(=O)O)NC1=O)c1ccc(O)c(c1)-c1c(O)cc(O)cc1[C@H](C(=O)O)NC2=O)n1cc(COc2ccc(-c3ccc(OCc4cn([C@H](CC(C)C)C(=O)N[C@@H]5Cc6ccc(c(Cl)c6)Oc6cc7cc(c6O[C@@H]6O[C@H](CO)[C@@H](O)[C@H](O)[C@H]6O[C@H]6C[C@](C)(NCCCCCCCc8ccccc8)[C@H](O)[C@H](C)O6)Oc6ccc(cc6Cl)[C@@H](O)[C@@H]6NC(=O)[C@H](NC(=O)[C@@H]7NC(=O)[C@H](CC(=O)O)NC5=O)c5ccc(O)c(c5)-c5c(O)cc(O)cc5[C@H](C(=O)O)NC6=O)nn4)cc3)cc2)nn1,MIC,Staphylococcus aureus [12],12.5 µg/mL
same,MIC,Staphylococcus aureus [13],12.5 µg/mL
same,MIC,Enterococcus [6],25 µg/mL
Cc1ccc2c(c1)nnn2CC(O)Cn1cnc2cc(F)ccc2c1=O (stereo not drawn),MIC,Staphylococcus aureus [7],≥ 64 µg/mL
same,MIC,Staphylococcus aureus [8],≥ 64 µg/mL
N=C(N)NCCC[C@H](NC(=O)[C@H](Cc1c[nH]c2ccccc12)NC(=O)[C@H](CCCNC(=N)N)NC(=O)[C@H](Cc1c[nH]c2ccccc12)NC(=O)[C@@H](N)CCCNC(=N)N)C(=O)N[C@@H](Cc1c[nH]c2ccccc12)C(=O)N[C@@H](CCCCn1cc(COc2cccc(OCc3cn(CCCC[C@H](NC(=O)[C@H](Cc4c[nH]c5ccccc45)NC(=O)[C@H](CCCNC(=N)N)NC(=O)[C@H](Cc4c[nH]c5ccccc45)NC(=O)[C@H](CCCNC(=N)N)NC(=O)[C@H](Cc4c[nH]c5ccccc45)NC(=O)[C@@H](N)CCCNC(=N)N)C(N)=O)nn3)c2)nn1)C(N)=O,MIC,Staphylococcus aureus [1],2.7 µM
same,Ratio,Staphylococcus aureus [2],0.5
